# Earlier results in patent US7271167B2, “Compounds, compositions, and methods” (Cytokinetics, Inc., priority 2002, dated 2007).
# Tested on: A549 cells
# Details: data provided by National Cancer Institute, Developmental Therapeutic Program
row,Structure (SMILES),GI50 [nM]
1,O=c1[nH]cc(F)c(=O)[nH]1 [5-fluorouracil],1000
2,COc1cccc2c1C(=O)c1c(O)c3c(c(O)c1C2=O)C[C@@](O)(C(=O)CO)C[C@@H]3O[C@H]1C[C@H](N)[C@H](O)[C@H](C)O1 [doxorubicin],63
3,NC(=O)NO [hydroxyurea],500000
4,CC(=O)O[C@H]1C(=O)[C@@]2(C)[C@H]([C@H](OC(=O)c3ccccc3)[C@]3(O)C[C@H](OC(=O)[C@H](O)[C@@H](NC(=O)c4ccccc4)c4ccccc4)C(C)=C1C3(C)C)[C@]1(OC(C)=O)CO[C@@H]1C[C@@H]2O [paclitaxel],4
